Among the data in patent EP1619195A2, “Compounds isolated from gamboge resin having activity in inhibiting the growth of tumor/cancer cells and pharmaceutical compositions comprising the same” (priority 2004, dated 2006) are IC50, LC50 and CC50 values, retold here.

As a reminder, the IC50 is the point on the concentration scale where inhibition reaches its midpoint. A low value points to greater potency. By LC50 is commonly meant the concentration that kills 50% of the test population.

Converted amounts (≈) assume the structure as drawn.

The subject of one series is MCF-7 (breast cancer). The series is described as follows: cells. The settings on record: for IC50: 50% cell growth inhibition concentration; for LC50: 50% cell destroying lethal concentration. An excerpt:
(§1) The cancer cell growth inhibition test was primarily used to detect the effect of a candidate drug on cancer cell proliferation. The working principle involved therein is the abilityof viable cells to shift alamarBlue (Biosource, USA) from its originally non-fluorescent oxidized state to a reduced form (fluorescent, red) having fluorescence via metabolic reaction. According to the fluorescent data result generated by the alamarBlue reagent thus obtained, the proliferation of the viable cells and cell activity can be quantified for detection.
(§2) In this experiment, the assay concentrations of the candidate drug were set to be 0.01, 0.1, 1, 10, and 100 µg/ml, and the following cell lines were used: 6 human cancer cells MCF-7 (breast cancer), HT-29 (colon cancer), HL-60 (leukemia), HepG2 (liver cancer), A549 (lung cancer), and U937 (lymphoma cancer), and a normal human umbilicalvenalepithelialcell (HUVEC).

The test system of another series is HT-29 (colon cancer). The series is described as follows: cells. As to conditions: for LC50: 50% cell destroying lethal concentration; for IC50: 50% cell growth inhibition concentration.
Source text: as §1, §2

A further series has as its system HL-60 (leukemia). The series is described as follows: cells. As to conditions: for LC50: 50% cell destroying lethal concentration; for IC50: 50% cell growth inhibition concentration.
Source text: as §1, §2

The subject of another series is A549 (lung cancer). The series is described as follows: cells. The settings on record: for LC50: 50% cell destroying lethal concentration; for IC50: 50% cell growth inhibition concentration.
Source text: as §1, §2

The next series has as its system U937 (lymphoma cancer). The series is described as follows: cells. The settings on record: for LC50: 50% cell destroying lethal concentration.
Source text: as §1, §2

Another series deals with HepG2 (liver cancer). The series is described as follows: cells. As to conditions: for LC50: 50% cell destroying lethal concentration; for IC50: 50% cell growth inhibition concentration.
Source text: as §1, §2

In a further series the test system is HUVEC. The series is described as follows: in vitro. As to conditions: HUVEC (normal human cell); for LC50: 50% cell destroying lethal concentration; for IC50: 50% cell growth inhibition concentration.
Source text: as §1, §2

A further series can be described thus: in vitro. The settings on record: human.
Source text: as §1, §2

For `CC(C)=CCCC1(C)C=Cc2c(O)c3c(c(CC=C(C)C)c2O1)OC12C(=CC4CC1C(C)(C)OC2(CC=C(C)C(=O)O)C4=O)C3=O` (centres unmarked) [TSB-3, isogambogic acid], the IC50 in the series on MCF-7 (breast cancer) (Homo sapiens, MCF7, MCF-7) came out at 1.6 µg/mL (≈ 2.54 µM); with HT-29 (colon cancer) (Homo sapiens, HT-29, HT-29) it was 6.4 µg/mL (≈ 10.2 µM); with HL-60 (leukemia) (Homo sapiens, HL-60, HL-60), 0.97 µg/mL (≈ 1.54 µM); in the series with A549 (lung cancer) (Homo sapiens, A549, A549), 0.88 µg/mL (≈ 1.4 µM); with U937 (lymphoma cancer) (Homo sapiens, U-937), 0.82 µg/mL (≈ 1.3 µM); with HepG2 (liver cancer) (Homo sapiens, HepG2, HepG2) it was 1.2 µg/mL (≈ 1.91 µM). Also, the IC50 in the series on HUVEC (Homo sapiens, HUVEC) stood at 1.1 µg/mL (≈ 1.75 µM). For the same compound, the LC50 in the series with MCF-7 (breast cancer) (MCF-7) is 4.3 µg/mL (≈ 6.84 µM); in the series on HT-29 (colon cancer) (HT-29), 8.8 µg/mL (≈ 14 µM); with HL-60 (leukemia) (HL-60) it was 4.6 µg/mL (≈ 7.32 µM); in the series on A549 (lung cancer) (A549), 4.8 µg/mL (≈ 7.63 µM); with U937 (lymphoma cancer) (U937) it was 3.1 µg/mL (≈ 4.93 µM); in the series with HepG2 (liver cancer) (HepG2), 1.9 µg/mL (≈ 3.02 µM). Further, the LC50 in the series on HUVEC amounted to 5.2 µg/mL (≈ 8.27 µM).

On to `CC(C)=CCC[C@]1(C)C=Cc2c(O)c3c(c(CC=C(C)C)c2O1)O[C@]12C(=C[C@@H]4C[C@H]1C(C)(C)O[C@@]2(C/C=C(/C)C(=O)O)C4=O)C3=O` [TSB-5, gambogic acid], for which the IC50 in the series on MCF-7 (breast cancer) (Homo sapiens, MCF7, MCF-7) came out at 0.83 µg/mL (≈ 1.32 µM); in the series on HT-29 (colon cancer) (Homo sapiens, HT-29, HT-29), 4.5 µg/mL (≈ 7.16 µM); in the series on HL-60 (leukemia) (Homo sapiens, HL-60, HL-60), 0.5 µg/mL (≈ 0.795 µM); in the series with A549 (lung cancer) (Homo sapiens, A549, A549) it was 0.8 µg/mL (≈ 1.27 µM); with U937 (lymphoma cancer) (Homo sapiens, U-937, U937, 50% cell growth inhibition concentration) it was 0.65 µg/mL (≈ 1.03 µM); in the series on HepG2 (liver cancer) (Homo sapiens, HepG2, HepG2), 0.83 µg/mL (≈ 1.32 µM). The compound further gave an IC50 in the series on HUVEC (Homo sapiens, HUVEC) of 0.87 µg/mL (≈ 1.38 µM). Besides, the CC50 was 2.7 µg/mL (≈ 4.29 µM) in the series on MCF-7 (breast cancer) (Homo sapiens, MCF7, read-out: LC50); 7.1 µg/mL (≈ 11.3 µM) in the series on HT-29 (colon cancer) (Homo sapiens, HT-29, read-out: LC50); 5.2 µg/mL (≈ 8.27 µM) in the series on HL-60 (leukemia) (Homo sapiens, HL-60, read-out: LC50); 2.9 µg/mL (≈ 4.61 µM) in the series on A549 (lung cancer) (Homo sapiens, A549, read-out: LC50); 3.1 µg/mL (≈ 4.93 µM) in the series with U937 (lymphoma cancer) (Homo sapiens, U-937, read-out: LC50); 2.7 µg/mL (≈ 4.29 µM) with HepG2 (liver cancer) (Homo sapiens, HepG2, read-out: LC50). In “in vitro”, this compound showed a CC50 of 3.6 µg/mL (≈ 5.73 µM).

With `CC(C)=CCc1c2c(c(O)c3c1OC14C(=CC5CC1C(C)(C)OC4(CC=C(C)C(=O)O)C5=O)C3=O)C=CC(C)(C)O2` (centres unmarked) [TSB-2, isomorellic acid], the LC50 with MCF-7 (breast cancer) (MCF-7) was 24 µg/mL (≈ 42.8 µM); in the series on HT-29 (colon cancer) (HT-29) it was 12 µg/mL (≈ 21.4 µM); in the series with HL-60 (leukemia) (HL-60), 43 µg/mL (≈ 76.7 µM); with A549 (lung cancer) (A549) it was 4.6 µg/mL (≈ 8.2 µM); in the series with U937 (lymphoma cancer) (U937), 6.1 µg/mL (≈ 10.9 µM); in the series with HepG2 (liver cancer) (HepG2), 33 µg/mL (≈ 58.9 µM). In the series on HUVEC, this compound registered an LC50 of 22 µg/mL (≈ 39.2 µM). Further, the half-maximal inhibitory concentration (IC50) in the series with MCF-7 (breast cancer) (MCF-7) stood at 9.0 µg/mL (≈ 16.1 µM); with HT-29 (colon cancer) (HT-29), 6.9 µg/mL (≈ 12.3 µM); in the series with HL-60 (leukemia) (Homo sapiens, HL-60, HL-60), 2.3 µg/mL (≈ 4.1 µM); with A549 (lung cancer) (Homo sapiens, A549, A549), 1.3 µg/mL (≈ 2.32 µM); in the series on U937 (lymphoma cancer) (Homo sapiens, U-937), 1.6 µg/mL (≈ 2.85 µM); in the series on HepG2 (liver cancer) (HepG2) it was 6.4 µg/mL (≈ 11.4 µM). This compound also returned an IC50 in the series on HUVEC (Homo sapiens, HUVEC) of 1.7 µg/mL (≈ 3.03 µM).

In the case of `CC(C)=CCc1c2c(c(O)c3c1OC14C(=CC5CC1C(C)(C)OC4(CC=C(C)C(=O)O)C5=O)C3=O)C=CC(C)(C)O2` (centres unmarked) [TSB-7, morellic acid], the LC50 with MCF-7 (breast cancer) (MCF-7) is 6.2 µg/mL (≈ 11.1 µM); in the series on HT-29 (colon cancer) (HT-29) it was 7.2 µg/mL (≈ 12.8 µM); with HL-60 (leukemia) (HL-60), 5.6 µg/mL (≈ 9.99 µM); with A549 (lung cancer) (A549), 3.4 µg/mL (≈ 6.06 µM); with U937 (lymphoma cancer) (U937), 4.8 µg/mL (≈ 8.56 µM); in the series on HepG2 (liver cancer) (HepG2), 3.9 µg/mL (≈ 6.96 µM). Also, the LC50 in the series on HUVEC turned out to be 4.8 µg/mL (≈ 8.56 µM). Moreover, the IC50 in the series with MCF-7 (breast cancer) (MCF-7) came out at 0.98 µg/mL (≈ 1.75 µM); in the series on HT-29 (colon cancer) (HT-29) it was 2.8 µg/mL (≈ 4.99 µM); in the series on HL-60 (leukemia) (HL-60), 1.2 µg/mL (≈ 2.14 µM); in the series on A549 (lung cancer) (A549), 0.76 µg/mL (≈ 1.36 µM); in the series on U937 (lymphoma cancer) (U937, 50% cell growth inhibition concentration), 1.6 µg/mL (≈ 2.85 µM); in the series on HepG2 (liver cancer) (HepG2), 1.7 µg/mL (≈ 3.03 µM). In the series on HUVEC, this compound had an IC50 of 0.88 µg/mL (≈ 1.57 µM).
